Experimental data reported in patent US8680100B2, “Sulfonylhydrazide compounds for treating proliferative disorders” (Synta Pharmaceuticals Corp., priority 2008, dated 2014).

Tested on: HSP70
Test: Hsp70 Activity Essay (HSP70 ELISA on lysates of MDA435 cells)
Type: cell-based
Conditions: concentration that increases HSP70 to 50% of maximum increase by N′1,N′3-dimethyl-N′1,N′3-di(phenylcarbonothioyl)malonohydrazide
Experimental: Each well was plated with MDA435 cells using DMEM 10% FBS Phenol-red free medium 2.5 k/well and incubated in a 37° C./5% CO2 incubator for a minimum of 6 hours to obtain good cell adherence.
Dilutions of each test compound were prepared in DMSO and DMEM 10% FBS Phenol-red free medium. The final concentration in each well was 1250 nM, 125 nM, 12.5 nM or 1.25 nM of test compound and 0.25% DMSO. 0.25% DMSO was used as a negative control. Lysis buffer (any lysis buffer suitable for use in the Assay Designs kit, e.g., such as that described in the kit instructions) was then added (amount used is one quarter of the volume already present in each plate) and the mixtures were then shaken for 10 minutes.
150 μL of “Can Get Signal” Immunoreaction Enhancer Solution (Solution 1 for primary antibody, TOYOBO, Catalogue No. NKB-101) were added to each of a series of ELISA plates. The ELISA plates were obtained from the HSP70 ELISA Kit (catalogue number EKS-700B) purchased from Assay Designs (Ann Arbor, Mich.). After the cells were lysed, 50 μL of lysate were taken from each well and added to an ELISA plate, resulting in a 4 fold dilution of the lysate (50 μL of lysate and 150 μL of Can Get Signal solution). The plates were covered with adhesive tape and incubated overnight at 4° C.;
In the morning, the liquid was aspirated from all wells and 400 μL of Washing Buffer made from 20× concentrate provided in the ELISA Kit and distilled water were added and then removed by aspiration. The addition of Washing Buffer and aspiration was repeated four times. After the fourth wash, the plate were inverted to a paper towel and carefully patted dry. 100 μL of HSP70 antibody provided in ELISA Kit were added to each well. Each well was covered with adhesive tape and incubated for one hour at room temperature. Washing Buffer was then added followed by removal with aspiration. The addition of Washing Buffer and aspiration was repeated four times, after which the plates were inverted and patted dry. 100 μL of HSP70 conjugate (provided in the ELISA Kit) were added to the wells. Each well was then covered with adhesive tape and incubated for one hour at room temperature. Washing Buffer was then added followed by removal with aspiration. The addition of Washing Buffer and aspiration was repeated four times, after which the plates were inverted and patted dry.
100 μL of the TMB Substrate (obtained from the ELISA Kit) were added to the wells (color development was visible in 1 minute). The wells were incubated until saturated color development (usually 5-15 minutes). Stop Solution 2 (provided in the ELISA Kit) was added in the same order TMB Substrate was added. The OD450 was then obtained using a plate reader. The EC50 for the compounds was calculated using N′^1,N′^3-dimethyl-N′^1,N′^3-di(phenylcarbonothioyl)malonohydrazide on the same plate as a control (concentration that increases HSP70 to 50% of maximum increase by N′^1,N′^3-dimethyl-N′^1,N′^3-di(phenylcarbonothioyl)malonohydrazide). The EC50 for each of the compounds tested is shown in example 1.

EC50 [nM]	SMILES
25	CCN(NS(=O)(=O)CC(=O)NN(C)C(=S)c1ccccc1)C(=S)c1ccccn1 [Compound 6, N′-ethyl-2-(2-methyl-2-(phenylcarbonothioyl)hydrazinyl)-2-oxo-N′-(pyridine-2-carbonothioyl) ethanesulfonohydrazide]
180	CN(NC(=O)CS(=O)(=O)NN(C)C(=S)c1cccnc1)C(=S)c1ccccc1 [Compound 10, N′-methyl-2-(2-methyl-2-(phenylcarbonothioyl)hydrazinyl)-2-oxo-N′-(pyridine-3-carbonothioyl)-ethanesulfonohydrazide]
1030	CN(NC(=O)CS(=O)(=O)NN(C)C(=S)c1ccccc1)C(=S)c1ccncc1 [Compound 11, N′-methyl-2-(2-methyl-2-(pyridine-4-carbonothioyl)hydrazinyl)-2-oxo-N′-(phenylcarbonothioyl)ethane-sulfonohydrazide]
202	CN(NC(=O)CS(=O)(=O)NN(C)C(=S)c1ccccc1)C(=S)c1cccnc1 [Compound 13, N′-methyl-2-(2-methyl-2-(pyridine-3-carbonothioyl)hydrazinyl)-2-oxo-N′-(phenylcarbonothioyl)ethane-sulfonohydrazide]
98	CN(NC(=O)CS(=O)(=O)NN(C)C(=S)C1CC1)C(=S)C1CC1 [Compound 28, N′-(cyclopropanecarbonothioyl)-2-(2-(cyclopropanecarbonothioyl)-2-methylhydrazinyl)-N′-methyl-2-oxoethanesulfonohydrazide]
146	CCN(NC(=O)CS(=O)(=O)NN(CC)C(=S)C1CC1)C(=S)C1CC1 [Compound 29, N′-(cyclopropanecarbonothioyl)-2-(2-(cyclopropanecarbonothioyl)-2-ethylhydrazinyl)-N′-ethyl-2-oxoethanesulfonohydrazide]
49	CCN(NC(=O)CS(=O)(=O)NN(CC)C(=S)C1(C)CC1)C(=S)C1(C)CC1 [Compound 30, N′-ethyl-2-(2-ethyl-2-(1-methylcyclopropanecarbonothioyl) hydrazinyl)-N′-(1-methylcyclopropanecarbonothioyl)-2-oxoethanesulfonohydrazide]
143	CCOC(=S)N(C)NS(=O)(=O)CC(=O)NN(C)C(=S)C1CC1 [Compound 33, O-ethyl 2-(2-(2-(cyclopropanecarbonothioyl)-2-methylhydrazinyl)-2-oxoethylsulfonyl)-1-methylhydrazinecarbothioate]
1020	CCN(NS(=O)(=O)CC(=O)NN(C)C(=S)C1CC1)C(=S)c1cnccn1 [Compound 35, 2-(2-(cyclopropanecarbonothioyl)-2-methylhydrazinyl)-N′-ethyl-2-oxo-N′-(pyrazine-2-carbonothioyl)-ethanesulfonohydrazide]
76	CN(NS(=O)(=O)CC(=O)NN(C)C(=S)C1CC1)C(=S)c1ccccc1 [Compound 36, 2-(2-(cyclopropanecarbonothioyl)-2-methylhydrazinyl)-N′-methyl-2-oxo-N′-(phenylcarbonothioyl)ethane-sulfonohydrazide]
22	CN(NC(=O)CS(=O)(=O)NN(C)C(=S)C1CC1)C(=S)c1ccccc1 [Compound 39, N′-(cyclopropanecarbonothioyl)-N′-methyl-2-(2-methyl-2-(phenylcarbonothioyl)hydrazinyl)-2-oxoethanesulfonohydrazide]
74	CN(NC(=O)CS(=O)(=O)NN(C)C(=S)c1ccc(N2CCOCC2)cc1)C(=S)c1ccccc1 [Compound 43, N′-methyl-2-(2-methyl-2-(phenylcarbonothioyl)hydrazinyl)-N′-(4-morpholinophenylcarbonothioyl)-2-oxoethanesulfonohydrazide]
114	CCN(NS(=O)(=O)CC(=O)NN(C)C(=S)c1ccccc1)C(=S)N1CCOCC1 [Compound 50, N′-ethyl-2-(2-methyl-2-(phenylcarbonothioyl)hydrazinyl)-N′-(morpholine-4-carbonothioyl)-2-oxoethanesulfonohydrazide]

The next lines start with the compound.

SMILES	EC50 [nM]
CN(NC(=O)CS(=O)(=O)NN(C)C(=S)c1cccc(F)c1)C(=S)c1cccc(F)c1 [Compound 1, N′-(3-fluorophenylcarbonothioyl)-2-(2-(3-fluorophenylcarbonothioyl)-2-methylhydrazinyl)-N′-methyl-2-oxoethanesulfonohydrazide]	60
CN(NC(=O)CS(=O)(=O)NN(C)C(=S)c1cnccn1)C(=S)c1ccccc1 [Compound 9, N′-methyl-2-(2-methyl-2-(phenylcarbonothioyl)hydrazinyl)-2-oxo-N′-(pyrazine-2-carbonothioyl)-ethanesulfonohydrazide]	971
CN(NC(=O)CS(=O)(=O)NN(C)C(=S)c1ccoc1)C(=S)c1ccoc1 [Compound 17, N′-(furan-3-carbonothioyl)-2-(2-(furan-3-carbonothioyl)-2-methylhydrazinyl)-N′-methyl-2-oxoethanesulfonohydrazide]	127
CN(NC(=O)CS(=O)(=O)NN(C)C(=S)c1ccco1)C(=S)c1ccco1 [Compound 18, N′-(furan-2-carbonothioyl)-2-(2-(furan-2-carbonothioyl)-2-methylhydrazinyl)-N′-methyl-2-oxoethanesulfonohydrazide]	15
CCN(CC)C(=S)N(C)NC(=O)CS(=O)(=O)NN(C)C(=S)N(CC)CC [Compound 20, 2-(2-(2-(diethylcarbamothioyl)-2-methylhydrazinyl)-2-oxoethylsulfonyl)-N,N′-diethyl-1-methylhydrazinecarbothioamide]	85
CCN(CC)C(=S)N(C)NS(=O)(=O)CC(=O)NN(C)C(=S)C1CC1 [Compound 31, 2-(2-(2-(cyclopropanecarbonothioyl)-2-methylhydrazinyl)-2-oxoethylsulfonyl)-N,N′-diethyl-1-methylhydrazinecarbothioamide]	174
CN(NC(=O)CS(=O)(=O)NN(C)C(=S)C1CCC1)C(=S)C1CCC1 [Compound 32, N′-(cyclobutanecarbonothioyl)-2-(2-(cyclobutanecarbonothioyl)-2-methylhydrazinyl)-N′-methyl-2-oxoethanesulfonohydrazide]	958
CN(NS(=O)(=O)CC(=O)NN(C)C(=S)C1CCC1)C(=S)c1ccccc1 [Compound 40, 2-(2-(cyclobutanecarbonothioyl)-2-methylhydrazinyl)-N′-methyl-2-oxo-N′-(phenylcarbonothioyl)ethane-sulfonohydrazide]	1120
CN(NC(=O)CS(=O)(=O)NN(C)C(=S)c1ccc2c(c1)OCO2)C(=S)c1ccccc1 [Compound 42, N′-(benzo[d][1,3]dioxole-5-carbonothioyl)-N′-methyl-2-(2-methyl-2-(phenylcarbonothioyl)hydrazinyl)-2-oxoethanesulfonohydrazide]	56
CSC(=S)N(C)NS(=O)(=O)CC(=O)NN(C)C(=S)c1ccccc1 [Compound 44, methyl 1-methyl-2-(2-(2-methyl-2-(phenylcarbonothioyl)hydrazinyl)-2-oxoethylsulfonyl) hydrazinecarbodithioate]	228
CN(NC(=O)CS(=O)(=O)NN(C)C(=S)N1CCCC1)C(=S)c1ccccc1 [Compound 51, N′-methyl-2-(2-methyl-2-(phenylcarbonothioyl)hydrazinyl)-2-oxo-N′-(pyrrolidine-1-carbonothioyl)-ethanesulfonohydrazide]	57
CN(NC(=O)CS(=O)(=O)NN(C)C(=S)N1CCCCC1)C(=S)c1ccccc1 [Compound 52, N′-methyl-2-(2-methyl-2-(phenylcarbonothioyl)hydrazinyl)-2-oxo-N′-(piperidine-1-carbonothioyl)-ethanesulfonohydrazide]	87
CN(NS(=O)(=O)CC(=O)NN(C)C(=S)N1CCCC1)C(=S)c1ccccc1 [Compound 53, N′-methyl-2-(2-methyl-2-(pyrrolidine-1-carbonothioyl)hydrazinyl)-2-oxo-N′-(phenylcarbonothioyl)ethane-sulfonohydrazide]	102
CN(NS(=O)(=O)CC(=O)NN(C)C(=S)N1CCCCC1)C(=S)c1ccccc1 [Compound 54, N′-methyl-2-(2-methyl-2-(piperidine-1-carbonothioyl)hydrazinyl)-2-oxo-N′-(phenylcarbonothioyl)ethane-sulfonohydrazide]	108
